The text below walks through data of article PMC3510080, “Identification of Compounds with Anti-Proliferative Activity against Trypanosoma brucei brucei Strain 427 by a Whole Cell Viability Based HTS Campaign” (PLoS Neglected Tropical Diseases, 2012).

The test system of one experiment is P. falciparum K1 strain. The experiment can be described thus: P. falciparum 3H-hypoxanthine incorporation assay; SI versus L6 cells. The experiment is classed as cell-based, Plasmodium falciparum. The conditions noted are these: Plasmodium falciparum, K1, L6, read-out: Reference Compound Activity P.F (IC50). On the procedure: (§1) L6 rat skeletal myoblasts, [29] were purchased from the American Type Culture Collection (ATCC, Rockville, MD, USA; ATCC number CRL 1458). This cell line was used for cytotoxicity testing to calculate an SI against T.b. rhodesiense and screened alongside the T.b. rhodesiense, P. falciparum, T. cruzi and L. donovani assays. L6 were also the host cells for the T. cruzi assay. Assays were performed in 96-well microtiter plates, each well containing 100 µl of RPMI 1640 medium supplemented with 1% L-glutamine (200 mM), 10% FCS, and 4000 L6 cells. Serial drug dilutions of eleven 3-fold dilution steps covering a range from 100 to 0.002 µg/ml were prepared. After 70 hours of incubation the plates were inspected under an inverted microscope to assure growth of the controls and sterile conditions. Ten µl of resazurin solution (resazurin, 12.5 mg in 100 ml double-distilled water) was then added to each well and the plates incubated for another 2 hours. Then the plates were read with a Spectramax Gemini XS microplate fluorometer (Molecular Devices Cooperation, Sunnyvale, CA, USA) using an excitation wavelength of 536 nm and an emission wavelength of 588 nm. Data was analysed using the microplate reader software Softmax Pro (Molecular Devices, USA). Podophyllotoxin was used as a positive control in the assay.
Compounds dissolved in DMSO at 10 mg/ml were added to parasite cultures incubated in RPMI 1640 medium without hypoxanthine, supplemented with HEPES (5.94 g/l), NaHCO3 (2.1 g/l), neomycin (100 U/ml), Albumax (5 g/l) and washed human A^+ red blood cells at 2.5% haematocrit (0.3% parasitaemia). Serial drug dilutions of eleven 3-fold dilution steps covering a range from 100 to 0.002 µg/ml were prepared. The 96-well plates were incubated in a humidified atmosphere at 37°C; 4% CO2, 3% O2, 93% N2. After 48 hours, 50 µl of ^3H-hypoxanthine ( = 0.5 µCi) was added to each well of the plate. The plates were incubated for a further 24 hours under the same conditions. The plates were then harvested with a Betaplate cell harvester (Wallac, Zurich, Switzerland), and the red blood cells transferred onto a glass fibre filter then washed with distilled water. The dried filters were inserted into a plastic foil with 10 ml of scintillation fluid, and counted in a Betaplate liquid scintillation counter (Wallac, Zurich, Switzerland). IC50 values were calculated from sigmoidal inhibition curves using Microsoft Excel.

The test system of experiment [1] is T. cruzi Tulahuen strain C2C4. The experiment can be described thus: T. cruzi Tulahuen strain C2C4 β-galactosidase assay; SI versus L6 cells. The experiment is classed as cell-based, Trypanosoma cruzi. On the procedure: as §1
Rat skeletal myoblasts (L6 cells) were seeded in 96-well microtitre plates at 2000 cells/well in 100 µl RPMI 1640 medium with 10% FCS and 2 mM l-glutamine. After 24 hours the medium was removed and replaced by 100 µl per well containing 5000 trypomastigote forms of T. cruzi Tulahuen strain C2C4 containing the β-galactosidase (Lac Z) gene. After 48 hours the medium was removed from the wells and replaced by 100 µl fresh medium with or without a serial drug dilution of eleven 3-fold dilution steps covering a range from 100 to 0.002 µg/ml. After 96 hours of incubation the plates were inspected under an inverted microscope to assure growth of the controls and sterility. Then 50 µl of the substrate, containing chlorophenol red-β-D-galactopyranoside (CPRG) and Nonidet, was added to all wells. A colour reaction developed within 2–6 hours that could be read photometrically at 540 nm. Data were transferred into the graphic programme Softmax Pro (Molecular Devices, USA), which calculated IC50 values. The drug benznidazole was used as a positive standard in this assay.

A further experiment concerns T.b. rhodesiense STIB900. Put plainly: T. b. rhodesiense STIB900 assay (resazurin); SI versus L6 cells. It counts as cell-based, Trypanosoma brucei rhodesiense. On the procedure: as §1
T.b. rhodesiense STIB900 stock was isolated in 1982 from a human patient in Tanzania and after several mouse passages cloned and adapted to axenic culture conditions. Fifty microliters of Minimum Essential Medium (MEM) supplemented with 25 mM HEPES, 1 g/l additional glucose, 1% MEM non-essential amino acids (100×), 0.2 mM 2-mercaptoethanol, 1 mM Na-pyruvate and 15% heat inactivated horse serum was added to each well of a 96-well microtiter plate. Serial drug dilutions of eleven 3-fold dilution steps covering a range from 100 to 0.002 µg/ml were prepared. Four thousand bloodstream form cells of T.b. rhodesiense STIB 900 in 50 µl were added to each well and the plate incubated at 37°C under a 5% CO2 atmosphere for 70 hours. Ten microlitres of resazurin solution (resazurin, 12.5 mg in 100 ml double-distilled water) was then added to each well and incubation continued for a further 2–4 hours. Plates were then read with a Spectramax Gemini XS microplate fluorometer (Molecular Devices, USA) using an excitation wavelength of 536 nm and an emission wavelength of 588 nm. Data was analysed using the microplate reader software Softmax Pro (Molecular Devices, USA). The drug melarsoprol was a positive control against T.b. rhodesiense.

Experiment [2] concerns L. donovani strain MHOM/ET/67/L82 axenic amastigotes. Put plainly: L. donovani axenic amastigote fluorescence assay; SI versus L6 cells. It counts as cell-based, Leishmania donovani. On the procedure: as §1
Amastigotes of L. donovani strain MHOM/ET/67/L82 were grown in axenic culture at 37°C in SM medium at pH 5.4 supplemented with 10% heat-inactivated FCS under an atmosphere of 5% CO2 in air. One hundred µl of culture medium containing 10^5 amastigotes from axenic culture with or without a serial drug dilution were seeded in 96-well microtitre plates. Serial drug dilutions of eleven 3-fold dilution steps covering a range from 100 to 0.002 µg/ml were prepared. After 70 hours of incubation the plates were inspected under an inverted microscope to assure growth of the controls and sterile conditions. Ten µl of resazurin solution (12.5 mg resazurin dissolved in 100 ml distilled water) were then added to each well and the plates incubated for another 2 hours. The plates were then read with a Spectramax Gemini XS microplate fluorometer (Molecular Devices, USA) using an excitation wavelength of 536 nm and an emission wavelength of 588 nm. Data was analysed using the software Softmax Pro (Molecular Devices, USA). Decrease of fluorescence ( = inhibition) was expressed as percentage of the fluorescence of control cultures and plotted against the drug concentrations. From the sigmoidal inhibition curves the IC50 values were calculated. Miltefosine served as a known drug control in this assay.

Broadly, the IC50 is the point on the concentration scale where inhibition reaches its midpoint.

The structures appear in SMILES notation. Some results are limits rather than exact numbers.

As to `CCN(CC)CCCC(C)Nc1ccnc2cc(Cl)ccc12` (stereo not shown) [Chloroquine, reference compound], the half-inhibitory concentration (IC50) with P. falciparum K1 strain is 164 ± 24.7 nM.
Turning to `O=C(Cn1ccnc1[N+](=O)[O-])NCc1ccccc1` [Benznidazole, benznidazole, reference compound], the IC50 in experiment [1] (Trypanosoma cruzi, TULAHUEN, L6, positive standard, read-out: Reference Compound Activity T.C (IC50)) was 1680 ± 1930 nM. Moreover, the “Selectivity Index T.C” value in experiment [1] (relative to L6 cells) was greater than 206.
On to `Nc1nc(N)nc(Nc2ccc([As]3SCC(CO)S3)cc2)n1` (stereo not shown) [Melarsoprol, melarsoprol, reference compound], for which, in the experiment with T.b. rhodesiense STIB900 (Trypanosoma brucei, L6, read-out: Reference Compound Activity T.R (IC50)), the half-maximal inhibitory concentration (IC50) turned out to be 6.28 ± 1.78 nM. For the same molecule, the “Selectivity Index T.R” value in the experiment with T.b. rhodesiense STIB900 (relative to L6 cells) is given as 2915.
As for `CCCCCCCCCCCCCCCCOP(=O)([O-])OCC[N+](C)(C)C` [Miltefosine, reference compound], in experiment [2] (Leishmania donovani, L6, known drug control, read-out: Reference Compound Activity L.D (IC50)), the IC50 was determined as 365 ± 93.7 nM. Besides, the “Selectivity Index L.D” value in experiment [2] (relative to L6 cells) was found to be 392.
